Test results as given in patent publication US20200181284A1, “EPIGENETIC INHIBITORS FOR SENSITIZING HEMATOLOGIC OR OTHER MALIGNANCIES TO GLUCOCORTICOID THERAPY” (UNIVERSITY OF SOUTHERN CALIFORNIA, priority 2017, published 2020).

Key:
[1] = system: resistant patient sample HM3101; experiment: Cell death assay (PrestoBlue viability, 3 days); assay type: cell-based, human; settings: HM3101, highest concentration (10 μM)
Method: Cell death assays: We used PrestoBlue to measure cell viability in response to knockdown and treatment. Cells were grown to a density of 250,000 cell/ml, then dispensed into black tissue culture plates and grown overnight. In the morning, cells were treated. For both CAL-101 (Selleckchem, S2226) and dex (Sigma, D4902), viability was measured after 3 days. As PrestoBlue measures NADPH/NADH metabolites, the balance of which can be affected by GC treatment, we performed frequent cell count spot checks manually by trypan blue exclusion to ensure that fluorescence measurements reflected true viability. Both CAL-101 and dex were dissolved in ethanol, and used 1:1000 in cell culture for a final ethanol concentration of 0.1%. […] Viabilities and EC50 were then calculated using four parameter non-least squares fitting using Prism 6. qPCR of Causative genes: Cells were grown to a density of 1 million cells/ml, then aliquoted into 6 well plates in the afternoon, then grown overnight. […]
The results as shown in FIGS. 14A-14B generally highlight the EC50 of BCP-ALL specimens for dexamethasone and CAL-101. […] Cell viability was measured by PrestoBlue staining. […] Bar plot of the EC50, calculated by four-parameter least-squares fitting (Both plotted and calculated in GraphPad Prism). […]

[2] = system: five B-ALL samples (NALM-6, SUP-B15, RCH-ACV, HM3101, ALL121); experiment: Combination of dex and CAL-101: isoboles and combination index (Calcusyn); assay type: cell-based, human; settings: lowest value over the samples; super additive <1, Calcusyn
Method: Cell death assays: We used PrestoBlue to measure cell viability in response to knockdown and treatment. Cells were grown to a density of 250,000 cell/ml, then dispensed into black tissue culture plates and grown overnight. In the morning, cells were treated. For both CAL-101 (Selleckchem, S2226) and dex (Sigma, D4902), viability was measured after 3 days. As PrestoBlue measures NADPH/NADH metabolites, the balance of which can be affected by GC treatment, we performed frequent cell count spot checks manually by trypan blue exclusion to ensure that fluorescence measurements reflected true viability. Both CAL-101 and dex were dissolved in ethanol, and used 1:1000 in cell culture for a final ethanol concentration of 0.1%. Combination treatments were performed in triplicate in 384 well plates with 20 dilutions of dex from 10^M to 0 and 9 dilutions of CAL-101 from 10^M to 0. Viabilities and EC50 were then calculated using four parameter non-least squares fitting using Prism 6. qPCR of Causative genes: Cells were grown to a density of 1 million cells/ml, then aliquoted into 6 well plates in the afternoon, then grown overnight. Cells were then treated with the drugs and times indicated, at which point cells were spun down at 400 g for 5 minutes, the medium aspirated, and the pellet resuspended in 0.7 ml Qiazol/Trizol and frozen. […]

SUP-B15 [3] = experiment: Cell death assay (PrestoBlue viability, 3 days); assay type: cell-based, human; settings: SUP-B15, highest concentration (10 μM), 3 days
Method: (§1) Cell death assays: We used PrestoBlue to measure cell viability in response to knockdown and treatment. Cells were grown to a density of 250,000 cell/ml, then dispensed into black tissue culture plates and grown overnight. In the morning, cells were treated. For both CAL-101 (Selleckchem, S2226) and dex (Sigma, D4902), viability was measured after 3 days. As PrestoBlue measures NADPH/NADH metabolites, the balance of which can be affected by GC treatment, we performed frequent cell count spot checks manually by trypan blue exclusion to ensure that fluorescence measurements reflected true viability. Both CAL-101 and dex were dissolved in ethanol, and used 1:1000 in cell culture for a final ethanol concentration of 0.1%. Combination treatments were performed in triplicate in 384 well plates with 20 dilutions of dex from 10^M to 0 and 9 dilutions of CAL-101 from 10^M to 0. Viabilities and EC50 were then calculated using four parameter non-least squares fitting using Prism 6. qPCR of Causative genes: Cells were grown to a density of 1 million cells/ml, then aliquoted into 6 well plates in the afternoon, then grown overnight. Cells were then treated with the drugs and times indicated, at which point cells were spun down at 400 g for 5 minutes, the medium aspirated, and the pellet resuspended in 0.7 ml Qiazol/Trizol and frozen. RNA was then isolated using the miRNAeasy protocol. cDNA was then prepared form 1^g of RNA suing SuperScript3, and qPCR performed using BioRad iQ mix. Primers for qPCR were designed using the IDT web site, then tested for each gene. […] Expression levels for each gene were corrected for primer efficiency, normalized to RPL19, then compared to controls (Pfaffl, 2001).
The optimal signal was determined by incubating cells with 1 ^M dex for 0, 4, 8, and 24 hours. […] Cells were incubated with dex alone, CAL-101 alone, and in combination for 24 hours, then harvested and qPCR performed as described above. Each experiment was performed at least three times, and analyzed using GraphPad (Prism 6). Significant differences between drug and control and between either drug alone and combinations was determined by two sided Student's t-test (P-Value<0.05).
Three cell lines (NALM6, SUP-B15, and RCH-ACV), one resistant patient sample (HM3101), and one relapsed Phlike xenograft (ALL121) were incubated with increasing concentrations of dex or CAL-101 for 3 days. Cell viability was measured by PrestoBlue staining. Curves, values, and errors are based on at least 3 replicates. Bar plot of the EC50, calculated by four-parameter least-squares fitting (Both plotted and calculated in GraphPad Prism).

[4] = system: relapsed B-ALL cells (ALL121); experiment: PDX model of ALL: NSG mice engrafted with ALL121, spleen size and human ALL cells in spleen; assay type: in vivo; settings: idela monotherapy 50 mg/kg daily, two weeks
Source text: As proof of concept, we tested this combination in a PDX model of ALL.

SUP-B15 [5] = experiment: qPCR of effector genes, dex and CAL-101 alone and combined, 24 hours; assay type: cell-based, human; settings: SUP-B15, addition of CAL-101 to dex
Method: as §1
(§2) The optimal signal was determined by incubating cells with 1 ^M dex for 0, 4, 8, and 24 hours. […] Each experiment was performed at least three times, and analyzed using GraphPad (Prism 6). Significant differences between drug and control and between either drug alone and combinations was determined by two sided Student's t-test (P-Value<0.05).

NALM-6 = experiment: as above; assay type: cell-based, human; settings: NALM-6, CAL-101 alone
Method: as §1, §2

RCH-ACV = experiment: as above; assay type: cell-based, human; settings: addition of CAL-101 to dex
Method: as §1, §2

CC[C@H](Nc1ncnc2[nH]cnc12)c1nc2cccc(F)c2c(=O)n1-c1ccccc1 [CAL-101]
death caused by CAL-101 [1]: < 50%
combination index of dex and CAL-101 [2]: ≥ 0.13
death caused by CAL-101 (SUP-B15 [3]): < 50%
effect on spleens (spleen size) [4]: no effect
PIK3CD expression (SUP-B15 [5]): no significant effect
TXNIP regulation (NALM-6): no effect
PIK3CD expression (RCH-ACV): no significant effect
